Laboratory results from publication PMC4167715 (Biochemistry, 2013).

Key:
[1] = molecular target: E. coli class II fructose 1,6-bisphosphate aldolase (EcFBA) (Escherichia coli, UniProt P0AB71); experiment: coupled fluorescence FBP cleavage assay, single concentration; type: biochemical; conditions: read-out: % inhibition at 25 μM
[2] = molecular target: M. tuberculosis class II fructose 1,6-bisphosphate aldolase (MtFBA) (Mycobacterium tuberculosis, UniProt P9WQA3); experiment: X-ray crystal structure; type: binding
Sequence of M. tuberculosis class II fructose 1,6-bisphosphate aldolase (MtFBA) (P9WQA3 whole entry): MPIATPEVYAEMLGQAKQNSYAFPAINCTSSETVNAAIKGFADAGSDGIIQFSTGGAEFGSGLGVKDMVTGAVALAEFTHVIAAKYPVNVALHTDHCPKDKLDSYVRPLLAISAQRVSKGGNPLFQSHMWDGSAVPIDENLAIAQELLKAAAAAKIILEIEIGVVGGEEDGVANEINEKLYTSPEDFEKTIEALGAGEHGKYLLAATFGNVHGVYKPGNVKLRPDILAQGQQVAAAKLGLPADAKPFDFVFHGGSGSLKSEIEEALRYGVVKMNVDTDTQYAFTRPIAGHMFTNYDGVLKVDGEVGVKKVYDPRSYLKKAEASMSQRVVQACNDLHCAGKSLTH

[3] = molecular target: S. aureus class II fructose 1,6-bisphosphate aldolase (SaFBA) (Staphylococcus aureus, UniProt Q5HE75); experiment: biochemical; conditions: read-out: % inhibition at 25 μM
Sequence of S. aureus class II fructose 1,6-bisphosphate aldolase (SaFBA) (Q5HE75 whole entry): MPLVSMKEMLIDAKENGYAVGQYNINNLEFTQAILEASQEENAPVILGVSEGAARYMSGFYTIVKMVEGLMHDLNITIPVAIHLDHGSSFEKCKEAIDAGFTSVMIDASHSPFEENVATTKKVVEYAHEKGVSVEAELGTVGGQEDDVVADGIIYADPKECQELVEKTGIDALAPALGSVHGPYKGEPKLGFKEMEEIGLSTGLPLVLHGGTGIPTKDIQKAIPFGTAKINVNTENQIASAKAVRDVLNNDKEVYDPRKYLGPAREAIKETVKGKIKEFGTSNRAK

Sequence of E. coli class II fructose 1,6-bisphosphate aldolase (EcFBA) (P0AB71 2-359): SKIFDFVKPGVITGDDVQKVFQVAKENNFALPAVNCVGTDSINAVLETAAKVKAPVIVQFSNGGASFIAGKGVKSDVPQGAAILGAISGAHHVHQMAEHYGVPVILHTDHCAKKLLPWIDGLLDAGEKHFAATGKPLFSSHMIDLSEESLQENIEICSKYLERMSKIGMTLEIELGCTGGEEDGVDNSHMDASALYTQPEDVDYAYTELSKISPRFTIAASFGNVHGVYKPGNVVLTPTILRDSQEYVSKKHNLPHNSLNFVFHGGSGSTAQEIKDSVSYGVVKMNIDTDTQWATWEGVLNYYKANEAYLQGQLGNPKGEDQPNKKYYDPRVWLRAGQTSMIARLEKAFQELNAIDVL

Work on `O=C(O)c1ccc2cccc(O)c2n1` [HCA, 8-hydroxyquinoline-2-carboxylic acid] yielded an inhibition at 25 µM [1] of 42.2 ± 2.8%, a Kd [2] of 70.8 ± 2.7 µM and an inhibition at 25 µM [3] of 64.3 ± 0.6%.
